Reference: patent US11492405B2, “Reducing systemic regulatory t cell levels or activity for treatment of disease and injury of the CNS” (Yeda Research and Development Co. Ltd, priority 2014, dated 2022)

Assays:
Type in all cases: in vivo, mouse
[1] = test system: 5XFAD AD-Tg mice; test: Flow cytometry of splenocytes in 5XFAD AD-Tg mice; details: weekly-GA, end of 1st week (two GA injections)
Method: (§1) Mice were transcardially perfused with PBS, and tissues were treated as previously described (Baruch et al, 2013). Brains were dissected and the different brain regions were removed under a dissecting microscope (Stemi DV4; Zeiss) in PBS, and tissues were dissociated using the gentleMACS™ dissociator (Miltenyi Biotec). Choroid plexus tissues were isolated from the lateral, third and fourth ventricles of the brain, incubated at 37° C. for 45 min in PBS (with Ca^2+/Mg^2+) containing 400 U/ml collagenase type IV (Worthington Biochemical Corporation), and then manually homogenized by pipetting. Spleens were mashed with the plunger of a syringe and treated with ACK (ammonium chloride potassium) lysing buffer to remove erythrocytes. In all cases, samples were stained according to the manufacturers' protocols. All samples were filtered through a 70 μm nylon mesh, and blocked with anti-Fc CD16/32 (1:100; BD Biosciences). For intracellular staining of IFN-γ, the cells were incubated with […] (10 ng/ml; Sigma-Aldrich) and ionomycin (250 ng/ml; Sigma-Aldrich) for 6 h, and Brefeldin-A (10 μg/ml; Sigma-Aldrich) was added for the last 4 h. Intracellular labeling of cytokines was done with BD Cytofix/Cytoperm™ Plus fixation/permeabilization kit (cat. no. 555028). […] Cells were analyzed on an LSRII cytometer (BD Biosciences) using FlowJo software. […]

[2] = test system: 5XFAD AD-Tg mice; test: Morris water maze (MWM) in 5XFAD AD-Tg mice; details: weekly-GA vs vehicle (PBS), AD-Tg mice at 6 m
Method: Mice were given three trials per day, for 4 consecutive days, to learn to find a hidden platform located 1.5 cm below the water surface in a pool (1.1 m in diameter). The water temperature was kept between 21-22° C. Water was made opaque with milk powder. Within the testing room, only distal visual shape and object cues were available to the mice to aid in location of the submerged platform. The escape latency, i.e., the time required to find and climb onto the platform, was recorded for up to 60 s. Each mouse was allowed to remain on the platform for 15 s and was then removed from the maze to its home cage. […] The inter-trial interval for each mouse was 10 min. On day 5, the platform was removed, and mice were given a single trial lasting 60 s without available escape. On days 6 and 7, the platform was placed in the quadrant opposite the original training quadrant, and the mouse was retrained for three sessions each day. Data were recorded using the EthoVision V7.1 automated tracking system (Noldus Information Technology). Statistical analysis was performed using analysis of variance (ANOVA) and the Bonferroni post-hoc test. All MWM testing was performed between 10 a.m. and 5 p.m. during the lights-off phase.

[3] = test system: 5XFAD AD-Tg mice; test: Flow cytometry of CP IFN-γ-expressing immune cells in 5XFAD AD-Tg mice; details: weekly-GA, end of 1st week (two GA injections)
Method: as §1

Substance: Glatiramer acetate [GA]
- splenocyte Foxp3+ Treg levels [1]: reduced
- spatial learning/memory performance in acquisition, probe and reversal phases of the MWM [2]: better spatial learning/memory performance
- IFN-γ-producing cells at the CP [3]: increase
